Legend:
human GPR119 [1] = target: T1, human GPR119 (Homo sapiens, UniProt Q8TDV5); test: Reporter gene assay (CRE-luciferase) in HEK293-hGPR119 cells; assay type: cell-based; conditions: for allosteric modulation of OEA potency: compound added to OEA concentration response
T1 construct: expressed in transfected cells
T1 sequence (Q8TDV5 1-335): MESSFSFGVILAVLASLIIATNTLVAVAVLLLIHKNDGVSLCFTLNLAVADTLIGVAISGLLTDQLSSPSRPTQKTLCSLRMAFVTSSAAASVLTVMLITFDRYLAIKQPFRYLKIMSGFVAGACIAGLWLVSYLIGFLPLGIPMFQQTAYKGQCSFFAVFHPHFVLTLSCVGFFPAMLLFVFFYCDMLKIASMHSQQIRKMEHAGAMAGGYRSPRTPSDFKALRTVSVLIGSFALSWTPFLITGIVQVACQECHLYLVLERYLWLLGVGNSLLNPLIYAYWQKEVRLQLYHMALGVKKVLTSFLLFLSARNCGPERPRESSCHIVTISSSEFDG
Description: (§1) HEK293 cells stably transfected with a human GPR119 vector and a cAMP response element-driven luciferase reporter plasmid (HEK293-hGPR119 cells) and HEK293 cells transfected only with a cAMP response element-driven luciferase reporter plasmid (control HEK293 cells) were cultured in Dulbecco’s modified Eagle medium (DMEM) (Invitrogen, Carlsbad, CA, USA) supplemented with 10% fetal bovine serum (FBS), 4.5 g/l glucose, 100 units/ml penicillin and 100 µg/ml streptomycin at 37°C in 5% CO2. MIN6 cells were maintained in DMEM containing 15% FBS, 4.5 g/l glucose, 100 units/ml penicillin and 100 µg/ml streptomycin at 37°C in 5% CO2. GLUTag cells were maintained in DMEM containing 10% FBS, 1 g/l glucose, 100 units/ml penicillin and 100 µg/ml streptomycin at 37°C in 5% CO2.
(§2) HEK293-hGPR119 cells or control HEK293 cells were seeded onto 384-well plates with a density of 16,000 cells per well. At the time of assaying, AR-231453 or test compounds dissolved in DMSO were added. After 42 h of incubation at 37°C and 5% CO2 in a cell culture incubator, cells were lysed and quantified for luciferase activity using the Steady-Glo luciferase assay system (Promega, Madison, WI, USA) according to manufacturer’s protocol. For allosteric activity studies, test compounds were 5-fold serially diluted and added to AR-231453 or OEA concentration response reaction. Luciferase signals were determined with EnVision (PerkinElmer, Boston, MA, USA).

human GPR119 [2] = target: T1, human GPR119; test: cAMP accumulation assay (HTRF) in HEK293-hGPR119 cells; assay type: cell-based
Description: as §1
cAMP accumulation was measured using HTRF-cAMP dynamic kit (Cisbio International, Gif sur Yvette Cedex, France) according to manufacturer's instructions. Briefly, HEK293-hGPR119 cells were suspended in assay buffer (DMEM, 1 mM 3-isobutyl-1-methylxanthine) and transferred to 384-well microplates (Greiner Bio-One, Frickenhausen, Germany) at a density of 16,000 cells/well. Plates were incubated for 30 min at 37°C before adding test compounds. After treatment for 30 min at 37°C, the reactions were stopped by addition of lysis buffer containing HTRF reagents. Plates were then incubated for 60 min at room temperature, and time-resolved FRET signals were measured after excitation at 320 nm. Both the emission signal from the europium cryptate-labeled anti-cAMP antibody (620 nm) and the FRET signal resulting from the labeled cAMP-d2 (665 nm) were detected by EnVision (PerkinElmer).

db/db mice [3] = test: Chronic oral treatment of diabetic db/db mice; assay type: in vivo; conditions: for inhibition of glycemic excursion, oral glucose tolerance test, vs vehicle: glucose 3 g/kg; for food intake and body weight: 6-week once-daily oral treatment
Description: Animal experimentation was conducted in accordance with the regulations adopted by the Animal Care and Use Committee, Shanghai Institute of Materia Medica, Chinese Academy of Sciences (approval number: SIMM-2012-07-WMW-04). Male C57BL/KsJ db/db mice (Model Animal Research Center of Nanjing University, Nanjing, China) were housed in a temperature-controlled room (22±2°C), with a light/dark cycle of 12 h. At 6 weeks of age, mice were randomly assigned to chronic treatments. The experimental groups and respective doses of compounds were as follows: (1) 0.5% w/v sodium carboxyl methyl cellulose (CMC), (2) 10 mg/kg AR-231453, (3) 1 mg/kg sitagliptin (Beijing Huikang Boyuan Chemical Technology Co., Ltd., Beijing, China), (4) 10 mg/kg AR-231453 plus 1 mg/kg sitagliptin, (5) 100 mg/kg MW1219, and (6) 100 mg/kg MW1219 plus 1 mg/kg sitagliptin. Each regimen was administered once daily by oral gavaging for 6 weeks. Body weight and food intake were recorded every other day and fasting glucose levels measured every week. Oral glucose tolerance test was performed in overnight-fasting mice every other week. After six weeks of treatment, HbA1c were quantified, plasma insulin and GLP-1 contents were measured using respective ELISA kit. For oral glucose tolerance test, overnight fasting mice (n = 6/treatment) were given compounds orally at desired doses and after 30 min, an oral glucose bonus (3 g/kg) was delivered. Plasma glucose levels were determined at desired time points over a 2-h period using blood collected from the tail vein. For circulating GLP-1 analysis, compounds were administered orally to fasting animals followed by an oral glucose bolus (3 g/kg) 30 min later. Blood was drawn 2 min thereafter in Eppendorf tubes containing EDTA and a DPP-4 inhibitor. Plasma samples were obtained via centrifugation and assayed for active GLP-1 by the ELISA kit. Blood was collected again after 20 min to determine insulin levels.

db/db mice [4] = test system: db/db mice; parameters: method as in the literature (reference number not given); conditions: ref the literature (reference number not given); cited from earlier work
control HEK293 cells [5] = test: Reporter gene assay in control HEK293 cells (no GPR119); assay type: cell-based
Description: as §1
as §2, with “For allosteric activity studies, test compounds were 5-fold serially diluted and added to AR-231453 or OEA concentration response reaction.” left out

control HEK293 cells [6] = test: cAMP accumulation assay in control HEK293 cells; assay type: cell-based
Description: as §1
cAMP accumulation was measured using HTRF-cAMP dynamic kit (Cisbio International, Gif sur Yvette Cedex, France) according to manufacturer's instructions. […] Plates were then incubated for 60 min at room temperature, and time-resolved FRET signals were measured after excitation at 320 nm. Both the emission signal from the europium cryptate-labeled anti-cAMP antibody (620 nm) and the FRET signal resulting from the labeled cAMP-d2 (665 nm) were detected by EnVision (PerkinElmer).

MIN6 cells = test: Insulin secretion assay in MIN6 cells; assay type: cell-based, mouse; conditions: for glucose-stimulated insulin secretion vs DMSO control: 16.8 mM glucose, 1 h, MW1219 at 15 µM and 50 µM (P<0.05), OEA at 10 µM (P<0.01)
Description: as §1
Insulin-secreting MIN6 cells were plated in 96-well plates (20,000 cells per well) for 2 days. On the day of experiment, culture medium was aspirated and cells were washed twice with KRBH buffer. Cells were then placed at 37°C for 30 min in KRBH containing 2.8 mM glucose. Test compounds were dissolved in either 2.8 or 16.8 mM glucose medium and added to cells for 1 h. The supernatants were collected by centrifugation at 800×g for insulin measurements. Insulin content in the supernatant was determined using an insulin ELISA kit from Linco Research Laboratory (Billerica, MA, USA).
(§3) MIN6 and GLUTag cells were cultured as described above. siRNA targeting murine GPR119 coding sequences (Forward: 5′-[…]-3′, Reverse: 5′-[…]-3′) was purchased from GenePharma company (Shanghai, China). Transfection was performed using siRNA and Lipofectamine 2000 (Invitrogen, Burlington, ON, Canada) as instructed by the manufacturer. After 36 h, knockdown efficiency of siRNA was quantified by real-time RT-PCR, and cells were used for secretion experiments.

GLUTag cells = test: GLP-1 release assay in GLUTag cells; assay type: cell-based, murine; conditions: for GLP-1 release, low glucose medium: 2.8 mM glucose
Description: as §1
GLUTag cells were plated in 24-well plates on day 1 in low glucose DMEM supplemented with 10% FBS. Culture medium was replaced with DMEM (2.8 mM glucose) supplemented with 10% FBS 24 h before analysis of GLP-1 release. On the day of experiment, cells were washed twice with PBS and incubated with different compounds at desired concentrations in serum-free DMEM with 2.8 mM or 16.8 mM glucose for 1 h at 37°C and 5% CO2. The supernatants were collected by centrifugation for 3 min. GLP-1 in the supernatant was detected by a GLP-1 ELISA kit (Linco Research Laboratory).
as §3

[7] = reporter gene and cAMP accumulation assays
[8] = HEK293-hGPR119 cells, 42 h incubation, read-out: EC50, luciferase expression
[9] = 100 mg/kg MW1219 plus 1 mg/kg sitagliptin, oral, once daily, 6 weeks
[10] = MW1219 100 mg/kg, sitagliptin 1 mg/kg
[11] = MW1219 0 μM (Table S3), read-out: EC50 of OEA
[12] = in presence of MW1219 1 μM, read-out: EC50 of OEA
[13] = in presence of MW1219 10 μM, read-out: EC50 of OEA

SMILES: CC(C)c1noc(C2CCN(c3ncnc(Nc4ccc(S(C)(=O)=O)cc4F)c3[N+](=O)[O-])CC2)n1 [AR-231453]
- allosteric modulation of OEA potency (human GPR119 [1]; [7]): without affecting its potency
- EC50 (human GPR119 [2]; OEA 0 μM (Table S2), read-out: EC50 of AR-231453): 1.19 ± 0.16 nM
- feeding and weight gain (db/db mice [3]; AR-231453 in combination with sitagliptin): did not induce noticeable effects
- reduction of food intake (db/db mice [4]): only at very high doses

SMILES: CCOC(=O)c1ccc2oc3ccc(O)cc3c(=O)c2c1 [MW1219]
- efficacy relative to forskolin in the reporter gene assay (human GPR119 [1]; HEK293-hGPR119 cells): same level of efficacy as forskolin
- EC50 (human GPR119 [1]; [8]): 960 ± 80 nM
- allosteric modulation of OEA potency (human GPR119 [1]; [7]): not PAM for OEA
- activity on luciferase expression in the absence of GPR119 (control HEK293 cells [5]): did not show any activity
- efficacy compared to forskolin (control HEK293 cells [5]; Figure 2C): 10%
- efficacy, cAMP accumulation, relative to forskolin (human GPR119 [2]; 50 µM MW1219, HEK293-hGPR119 cells): about 40%
- cAMP increase in control cells (control HEK293 cells [6]): had no influence
- insulin secretion after GPR119 siRNA knockdown (MIN6 cells; 15 µM MW1219, GPR119 siRNA-treated MIN6 cells): suppressed by siRNA
- insulin release under low glucose (MIN6 cells; 2.8 mM glucose): no effect
- glucose-stimulated insulin secretion vs DMSO control (MIN6 cells): elevated insulin significantly
- GLP-1 release after GPR119 siRNA knockdown (GLUTag cells; 20 µM and 50 µM MW1219, siRNA-treated GLUTag cells): indistinguishable from the medium control
- GLP-1 release, low glucose medium (GLUTag cells; 1 h): Neither MW1219 nor OEA exhibited any effect
- GLP-1 released to supernatant, high glucose (GLUTag cells; 16.8 mM glucose, 1 h): elevated dose-dependently
- circulating GLP-1 levels (db/db mice [3]; 100 mg/kg MW1219, 6 weeks, 2 min after oral glucose 3 g/kg): not elevated
- insulin response to a glucose bolus (db/db mice [3]; 100 mg/kg MW1219, 6 weeks, 20 min after oral glucose 3 g/kg): notably more pronounced than that of controls
- inhibition of glycemic excursion, oral glucose tolerance test, vs vehicle (db/db mice [3]; 100 mg/kg MW1219, after 6 weeks, P<0.05): 8.6%
- reduction of fasting blood glucose vs control (db/db mice [3]; 100 mg/kg MW1219, oral, once daily, 6 weeks): 16%
- HbA1c decrease compared with the control (db/db mice [3]; 100 mg/kg MW1219, oral, once daily, 6 weeks, P<0.05): 0.67%
- inhibition of glycemic excursion, oral glucose tolerance test, vs vehicle (db/db mice [3]; 100 mg/kg MW1219 plus 1 mg/kg sitagliptin, after 6 weeks, P<0.001): 18.6%
- HbA1c change (db/db mice [3]; [9]): no difference
- fasting blood glucose vs mice that received sitagliptin alone (db/db mice [3]; [9]): significantly lower
- reduction of fasting blood glucose vs control (db/db mice [3]; [9]): 29%
- food intake and body weight (db/db mice [3]; [10]): neither food intake inhibition nor weight loss
- fasting plasma glucose levels and glucose tolerance, pilot dose-response studies (db/db mice [3]; MW1219 100 mg/kg, data not shown): improved both fasting plasma glucose levels and glucose tolerance

SMILES: CCCCCCCC/C=C\CCCCCCCC(=O)NCCO [OEA, oleoylethanolamide]
- efficacy on GPR119 (human GPR119 [1]; 1 µM OEA, HTS luciferase assay): 15%
- EC50 (human GPR119 [1]; AR-231453 0 nM (Table S1), read-out: EC50 of OEA): 2810 ± 210 nM
- EC50 (human GPR119 [1]; [8]): 2780 ± 180 nM
- EC50 (human GPR119 [1]; [11]): 2890 ± 610 nM
- EC50 (human GPR119 [1]; [12]): 3090 ± 680 nM
- EC50 (human GPR119 [1]; [13]): 2560 ± 470 nM
- allosteric modulation of AR-231453 potency (human GPR119 [1]; reporter gene and cAMP accumulation assays, compound added to AR-231453 concentration response): did not alter the potency of AR-231453
- EC50 (human GPR119 [2]; [11]): 1690 ± 170 nM
- EC50 (human GPR119 [2]; [12]): 1830 ± 240 nM
- EC50 (human GPR119 [2]; [13]): 1410 ± 110 nM
- glucose-stimulated insulin secretion vs DMSO control (MIN6 cells): elevated insulin significantly
- GLP-1 release, low glucose medium (GLUTag cells; 1 h): Neither MW1219 nor OEA exhibited any effect

SMILES: N[C@@H](CC(=O)N1CCn2c(nnc2C(F)(F)F)C1)Cc1cc(F)c(F)cc1F [sitagliptin, reference compound]
- HbA1c change (db/db mice [3]; 1 mg/kg sitagliptin, oral, once daily, 6 weeks): no difference
- food intake and body weight (db/db mice [3]; [10]): failed to suppress food intake and decrease body weight
- plasma GLP-1 levels (db/db mice [3]; sitagliptin 1 mg/kg): raised plasma GLP-1 levels
